# Source: a melting point compilation (Tetko et al.; mined from patent text by program, amines drawn as free bases though some values may be those of a salt)
row,Compound,melting point
1,O=c1c2cc3ccccc3cc2nc(CSc2ncnc3[nH]cnc23)n1-c1ccccc1Cl,248 to 254 °C
2,O=S(=O)(c1ccccc1)c1cc(Cl)c2oc3c(c2c1)CC(O)CC3 (stereo unspecified),236 to 240 °C
3,COc1cc(CC(C)(C)C(=O)O)cc2c1OC(C)(C)C2,88 to 89 °C
4,Cc1cccc2nnc(-c3ccccc3)c(Cl)c12,128 °C
5,O=c1c2c([nH]n1-c1cc(OCC3CCCSC3)c(Cl)cc1F)CCCC2 (stereo unspecified),96 to 100 °C
6,NC(=O)c1cccc(-c2noc(-c3ccccc3F)n2)c1,231 to 234 °C
7,COc1ccc2c(c1)C(CCNC(=O)C(C)C)CC2 (stereo unspecified),104 to 105 °C
8,CCC1(CC)c2cc(-c3nc4ccccc4s3)ccc2-c2ccc(N(c3cccc(OC)c3)c3cccc(OC)c3)cc21,178 to 180 °C
9,Oc1ccc(Oc2ccc(O)c(Br)c2)cc1Br,106 °C
10,COC(=O)c1ccc2c(c1)C(c1ccccn1)CC(C)(C)O2 (stereo unspecified),113 to 115 °C
11,COC(=O)CNc1cc(-c2c3ccccc3c(Br)c3sc(C)c(C)c23)cc(Br)c1OC,194 to 198 °C
12,COc1nnc(-c2ccc3ncn(-c4ccc(OC(F)(F)F)cc4)c3c2)o1,150 to 151 °C
13,Cc1ccnc(C=NNC(N)=S)c1N,227 to 228 °C
14,Cn1c(=O)c(=O)[nH]c2cccnc21,238 to 239 °C
15,CS(=O)c1cc(CCC(=O)OC(C)(C)C)cc(-c2nc(=O)c3ccccc3s2)n1 (stereo unspecified),220 °C
16,N#CCC(=O)c1ccc[nH]1,79 to 81 °C

row,Compound,melting point
1,Cc1cc(=O)n2c3c(cc(C(O)(C(F)(F)F)C(F)(F)F)cc13)CCCC2,169 to 171 °C
2,COc1ccc(C=Cc2nnc(C(Br)(Br)Br)o2)cc1,160 to 161 °C
3,O=[N+]([O-])c1ccc(Cl)nc1N1CCNCC1,50 to 53 °C
4,NC(=O)C1(CC23CC4CC(CC(C4)C2)C3)C=C(O)C=CC1Cl (stereo unspecified),263 to 264 °C
5,O=C(Nc1ccc(Cl)cc1)C(F)(F)C(O)(Cn1cncn1)c1ccc(F)cc1F (stereo unspecified),86 to 87 °C
6,Cc1ccc2c3ccccc3n(CC(O)CN3CCNCC3c3ccc(Cl)c(Cl)c3)c2c1 (stereo unspecified),140 °C
7,Nc1ncnn1C(=S)NCc1ccccc1,157 to 158 °C
8,Cc1ccc(-c2nnnn2C)c(S(N)(=O)=O)c1,161 to 171 °C
9,COC(=O)C=Cc1ccc2c(c1)Cc1cc(C=CC(=O)OC)ccc1-2,206 to 209 °C
10,CC/C(=C\C#CC(O)(C(F)(F)F)C(F)(F)F)c1cccc(CCc2ccc(CO)c(CO)c2)c1,123 °C
11,CS(=O)(=O)c1c(C(=O)NN=Cc2ccc(Cl)cc2)[nH]c2ccccc12,> 280 °C
12,CNC(=O)ON=C1SCC(=O)N1CCOC,153 to 155 °C
13,O=C1C(=Cc2ccc([N+](=O)[O-])cc2)CCc2cc(OCCn3ccnc3)ccc21,184 to 185 °C
14,"CN1C(=O)N(CC(CS(=O)(=O)c2ccc(Oc3ccc(Cl)cc3)cc2)N(O)C=O)C(=O)C1(C)C (single isomer, unassigned; (-))",111 °C
15,COc1ccc(OC)c(CCc2ccc3c(c2)C(=O)NCN3)c1,138 to 140 °C

# Results, then the compound that gave them:
row,melting point,Compound
1,155 to 158 °C,O=C(Nc1ccc([N+](=O)[O-])cc1)N1CCN(c2ncnc3ccccc23)CC1
2,251 to 255 °C,O=C(O)c1ccc(CN2C(=O)C3CCCC3=Nc3ccc(Cl)cc32)cc1 (stereo unspecified)
3,89 to 91 °C,CNC(=O)c1cc(SC)cc(N)n1
4,234 to 238 °C,COc1ccc2c(c1)CCc1c-2n(-c2ccccc2)c2ncccc2c1=O
5,149 to 153 °C,CSc1nc(SC)c(NC(=O)CCCCCSc2nc3ccccc3o2)c(SC)n1
6,212 to 213 °C,COc1cc(-c2ccc(-c3ccc(N=Nc4ccccn4)c(OC)c3)o2)ccc1N=Nc1ccccn1
7,227 °C,COc1cc2c(cc1OC)C(=O)C(=Cc1cc(Cl)cc(Cl)c1)C2
8,138 °C,Cc1cc(-n2cccn2)c2cccc(OCc3c(Cl)ccc(S(=O)(=O)N4CCC(CO)CC4)c3Cl)c2n1
9,136 to 137 °C,COc1ccc2c3cc(C)ccc3n(CC3CCCCC3)c2c1
10,89 to 98 °C,N#Cc1ccc(OCc2ccsc2)cc1OC(C(=O)O)c1ccccc1Br (racemic)
11,92 to 94 °C,c1ccc(-n2ncnc2-c2ccncc2)cc1
12,85 to 88 °C,OCC1=CCOc2ccc(Cl)cc21
13,112 to 113 °C,CC(C)c1nn(-c2ccc(C(F)(F)F)cn2)cc1COc1cc(C=O)n(C)n1
14,139 to 141 °C,Cc1cc(SCc2sc(-c3ccc(C(F)(F)F)cc3)nc2C)ccc1OCC(=O)O
15,93 to 95 °C,OC(CCc1cccnc1)COc1ccc2ccccc2c1 (stereo unspecified)
16,273 °C,CNc1c(F)cc2c(=O)c(C(=O)O)cn(-c3cc(N)c(F)cc3Cl)c2c1Cl
17,235 °C,COc1ccc(OC)c(-c2nc3ncccc3[nH]2)c1
18,218 to 220 °C,CCOC(=O)c1[nH]c2ccccc2c1-c1ccc([N+](=O)[O-])cc1
19,205 to 207 °C,N=C(N)Nc1nc(CSCCNc2ncc(Cc3ccc(Cl)cc3)c(=O)[nH]2)cs1
20,170 to 172 °C,Cc1cc(C)nc(SCC(CS(=O)(=O)c2ccc(-c3ccc(Cl)cc3)cc2)C(=O)O)n1 (stereo unspecified)

row,melting point,Compound
1,116 °C,CCOP(=O)(Cc1cccc(-c2nc(=O)c3ccccc3s2)n1)OCC
2,149 to 151 °C,O=C(C=Cc1cccnc1)NCCCCN1CCCN(C(c2ccccc2)c2ccccc2)CC1
3,141 to 142 °C,Cc1ccc(S(=O)(=O)N=CNCc2ccc(-c3csc(N=C(N)N)n3)o2)cc1
4,67 to 69 °C,CC(=O)n1c(-c2ccc(C)cc2)cc2ccccc21
5,> 250 °C,CN1CC(=O)Nc2ccc(F)cc2C1=O
6,103 to 106 °C,CC1(C)[C@@H](C=C(Cl)c2ccc(Cl)cc2)[C@@H]1C(=O)O (relative stereo)
7,148 to 150 °C,Cn1ccnc1Sc1ccc(Nc2c(C#N)cnc3cc(-c4ccc(CN5CCOCC5)cc4)ccc23)cc1Cl
8,208 °C,O=C(Nc1ccc2cc(CN3CCCC3)cnc2c1F)c1ccc(-c2ccc(Cl)cc2)cc1F
9,80 to 81 °C,CC1(C)CCC(C(=O)O)c2ccccc21 (stereo unspecified)
10,150 to 152 °C,CC1(C)CC(OC(=O)c2ccccc2)CC(C)(C)N1C#N
11,240 °C,COC(=O)c1cccc(-c2csc(N=C(N)N)n2)n1
12,129 to 130 °C,CC(C)(C)c1nc(C=O)cc(N)c1F
13,215 to 216 °C,CCc1c(C(=O)OC(C)C)ncc2[nH]c3ccc4ncc(C)nc4c3c12
14,270 to 273 °C,CC(C)(C)c1ccc2c(c1)-c1c(c(C(=O)C(C#N)C(=O)Nc3ccccc3)nn1-c1ccccc1)CO2 (stereo unspecified)
15,145 to 147 °C,Nc1nc(-c2ccc(OCC(=O)NCC3CCCCC3)cc2)cs1
16,102 to 103 °C,O=C1C=CC(O)(c2ccccc2)C=C1
17,122 to 124 °C,Cc1cc(OC2CCCCO2)c(C)cc1OCCCC(C)(C)C(=O)O (stereo unspecified)
18,194 to 203 °C,COCCOc1cc2c(Nc3ccc(Sc4nccn4C)c(Cl)c3)c(C#N)cnc2cc1OCCCN(C)C
19,180 to 181 °C,CCCCNC(=N)OC(=N)N(CCCC)c1cccc(-c2ccnc3c(C(=O)c4cccs4)cnn23)c1
20,125 to 127 °C,CC(SCC(=O)O)c1ccc(-c2ccccc2F)cc1 (stereo unspecified)
